Reference: publication PMC5945515, “Measuring glucocorticoid receptor expression in vivo with PET” (Oncotarget, 2018)
Read-outs that look alike come from different tables or passages of the source. Each block holds one compound with its values, some of them ahead of it.

How the values were obtained:
GR = settings: cited from earlier work
[1] = cited from earlier work
human GR = molecular target: T1, human GR (Homo sapiens, UniProt P04150); test: Competition binding assay on cells, human GR; settings: Supplementary Table 1; read-out: KD for human GR
T1 construct: PC3 and DU145, two human prostate cancer models with endogenous GR expression; endogenous in cells; host or cells: DU145
T1 sequence (P04150 1-777): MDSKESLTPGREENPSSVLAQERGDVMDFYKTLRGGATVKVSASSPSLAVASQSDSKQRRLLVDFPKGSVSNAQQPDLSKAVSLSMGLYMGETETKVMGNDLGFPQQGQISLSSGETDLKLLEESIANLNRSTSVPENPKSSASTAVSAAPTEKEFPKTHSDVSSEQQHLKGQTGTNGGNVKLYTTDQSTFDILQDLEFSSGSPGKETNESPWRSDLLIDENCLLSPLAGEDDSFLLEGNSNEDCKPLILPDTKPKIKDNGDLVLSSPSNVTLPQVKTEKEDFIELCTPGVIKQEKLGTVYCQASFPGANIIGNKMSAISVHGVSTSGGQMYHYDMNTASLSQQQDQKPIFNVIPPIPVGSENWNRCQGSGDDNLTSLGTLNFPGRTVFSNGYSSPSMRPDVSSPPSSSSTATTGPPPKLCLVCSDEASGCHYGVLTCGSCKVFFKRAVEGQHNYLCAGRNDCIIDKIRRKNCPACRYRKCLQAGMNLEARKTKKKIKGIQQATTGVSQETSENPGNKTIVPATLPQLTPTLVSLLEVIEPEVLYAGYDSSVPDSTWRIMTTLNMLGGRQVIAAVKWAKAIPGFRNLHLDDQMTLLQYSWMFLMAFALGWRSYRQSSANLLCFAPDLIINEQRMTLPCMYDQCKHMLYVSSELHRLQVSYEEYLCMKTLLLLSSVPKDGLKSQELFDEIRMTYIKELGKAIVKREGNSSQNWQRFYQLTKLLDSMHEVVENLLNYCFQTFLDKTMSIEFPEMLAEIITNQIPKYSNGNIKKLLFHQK
Method: The KD for subfamily 3 group C nuclear hormone receptors was determined on cells by displacing ^3H-steroidal agonists for the respective receptor.
The cold ligands and ^3H-steroids were co-incubated on cells in PBS at room temperature for one hour. Following incubation, the cells were washed twice with ice cold PBS and the unbound activity was retained for analysis. The cells were lysed with 1 mL of 1 M NaOH and collected. Bound and unbound fractions were counted in a liquid scintillation counter and expressed as a percentage of the total activity added per equal relative number of cells. […] The specific binding component was plotted against the log of the competing ligand and curve fit using a non-linear regression algorithm with PRISM software.

[2] = PET/CT and biodistribution in tumor naive C57BL6/J mice; assay type: in vivo, mouse
[3] = Log P determination (octanol:water); assay type: physicochemical
Method: To a microcentrifuge tube containing 1 mL of octanol:water (1:1 v/v) was added 50 μL of ^18F-GR02 (total activity = 37 MBq). The solution was vortexed vigorously for 30 sec, and the biphasic layers were allowed to separate. The layers were manually pipetted into new microcentrifuge tubes, and the activity of each fraction was read with a dose calibrator. The water fraction contained 1.7 MBq, and the octanol fraction contained 35.3 MBq.

[4] = PET/CT and biodistribution in tumor naive C57BL6/J mice; assay type: in vivo, mouse; remark: listed apart in the source
Method: All radiotracers were administered via tail vein injection in < 300 μL PBS. Intact male C57BL6/J or nu/nu mice were treated with vehicle or mife. (25 mg/kg) via oral gavage for four days prior to injection with ∼11 MBq of ^18F-GR02. Mice were anesthetized and imaged with a Siemens Inveon small animal PET/CT at dedicated time points post injection. Each mouse was imaged until 20 million coincident events were collected. All imaging data was reconstructed, decay corrected, and analyzed with AMIDE or ASIPro software. Maximum intensity projections were generated with ASIPro software. ASIPro software was also used to draw manual two dimensional regions of interest to calculate SUV data for static or dynamic acquisitions.
(§1) At dedicated time points post injection, mice were humanely euthanized with CO2 (g) asphyxiation and blood and tissues were removed, washed, dried and weighed. The activity associated with each tissue was measured with a gamma counter. The data was decay corrected and expressed as a percentage of the injected dose per gram of tissue with PRISM software.

subcutaneous PC3 tumors = test: Biodistribution in mice bearing subcutaneous PC3 tumors; assay type: in vivo, mouse; settings: one hour post injection
Method: (§2) All animal experiments were conducted with prior approval from IACUC at UCSF. Five to seven week old male nu/nu, intact or adx C57BL6/J mice were purchased from Charles River. Adx mice were provided drinking water supplemented with 0.9% NaCl (aq.). Male nu/nu mice received a subcutaneous bolus of 1 × 10^7 PC3 or DU145 cells in Matrigel and growth media (1:1 v/v) in the flank for tumor imaging studies with ^18F-GR02. For subrenal capsule tumor implants, 4–6 week old male Rag2 knockout mice (Taconic Farms) were placed under anesthesia with ∼2% isoflurane. A half centimeter dorsal midline incision was performed, and one kidney was gently pulled though the incision by applying pressure to the muscle wall. The kidney capsule was lifted from the parenchyma of the kidney, and PC3 cells (5 × 10^6 in 50 μL PBS) were injected into the pocket under the capsule. […]
(§3) All radiotracers were administered via tail vein injection in < 300 μL PBS. […] All imaging data was reconstructed, decay corrected, and analyzed with AMIDE or ASIPro software. […]
as §1

[5] = tested on: subcutaneous DU145 tumors; test: Biodistribution in mice bearing subcutaneous DU145 tumors; assay type: in vivo, mouse; settings: one hour post injection
Method: as §2, §3, §1

[6] = tested on: subrenal capsule PC3 tumors; test: Biodistribution in mice bearing subrenal capsule PC3 tumors; assay type: in vivo, mouse
Method: All animal experiments were conducted with prior approval from IACUC at UCSF. Five to seven week old male nu/nu, intact or adx C57BL6/J mice were purchased from Charles River. Adx mice were provided drinking water supplemented with 0.9% NaCl (aq.). Male nu/nu mice received a subcutaneous bolus of 1 × 10^7 PC3 or DU145 cells in Matrigel and growth media (1:1 v/v) in the flank for tumor imaging studies with ^18F-GR02. For subrenal capsule tumor implants, 4–6 week old male Rag2 knockout mice (Taconic Farms) were placed under anesthesia with ∼2% isoflurane. A half centimeter dorsal midline incision was performed, and one kidney was gently pulled though the incision by applying pressure to the muscle wall. The kidney capsule was lifted from the parenchyma of the kidney, and PC3 cells (5 × 10^6 in 50 μL PBS) were injected into the pocket under the capsule. The kidney was placed back and the skin incision was closed using 3 surgical sutures. The mice were treated once with Carprofen (5–10 mg/kg) to ease recovery. Mice were observed over 24 hours for signs of post-operative pain, bleeding and/or other complications. Tumor progression was followed for 7–14 days after surgery with a 14 T Agilent small animal MRI to identify tumors of suitable size to conduct the biodistribution study.
as §1

[7] = octanol:water 1:1, total activity 37 MBq
[8] = mouse intact, 60 minutes post injection
[9] = intact male nu/nu mice, vehicle
[10] = mouse adrenalectomized, 60 minutes post injection

SMILES: CC1(C)O[C@@H]2C[C@H]3[C@@H]4CCC5=CC(=O)C=C[C@]5(C)[C@@]4(F)[C@@H](O)C[C@]3(C)[C@]2(C(=O)CF)O1 [21-[18F]-deoxytriamcinolone acetonide]
Kd (GR; ref PMID 1526811): 2.1 nM

SMILES: CC12C=CC(=O)C=C1CCC1C2C(=O)CC2(C)C1CCC2(O)C(=O)C[18F] (stereo not drawn) [21-[18F]-prednisone]
logP o/w ([1]; ref PMID 3495649): 2.1

SMILES: C=CCC1Oc2cccc(OC)c2-c2ccc3c(c21)C(C)=CC(C)(C)N3 (stereo not drawn) [[11 C]-Al-438]
Kd (GR; ref PMID 17499506): 8.1 nM

SMILES: C=CCC1Oc2cccc(O[11CH3])c2-c2ccc3c(c21)C(C)=CC(C)(C)N3 (stereo not drawn) [[11 C]-Al-438]
logP o/w ([1]; ref PMID 17499506): 6.13

Kd (human GR): 3.8 nM
SMILES: CC12C=CC(=O)C=C1CCC1C2C(O)CC2(C)C1CCC2(O)C(=O)COCCCF (stereo not drawn) [^18F-GR01]

bone associated activity ([2]; intact male C57BL6/J mice, 60 minutes post injection): ~20 % ID/g
SMILES: CC12C=CC(=O)C=C1CCC1C2C(O)CC2(C)C1CCC2(O)C(=O)COCCC[18F] (stereo not drawn) [^18F-GR01]

Kd (human GR): 15.9 nM
SMILES: CC12C=CC(=O)C=C1CCC1C2C(O)CC2(C)C1CCC2(O)C(=O)CNC(=O)c1ccc(F)cc1 (stereo not drawn) [^18F-GR02]

activity in the octanol fraction [3, 7]: 35.3 MBq | activity in the water fraction [3, 7]: 1.7 MBq | log P (o/w) ([3]; octanol:water 1:1 v/v): 1.33 | fold higher specific binding in liver vs prior GR-targeted radiotracers ([4]; compared with literature data of Supplementary Table 2): 3–10 fold | Bone [4, 8]: 0.28 ± 0.1 % ID/g | Brain [4, 8]: 0.06 ± 0.02 % ID/g | Heart [4, 8]: 0.81 ± 0.5 % ID/g | Lung [4, 8]: 0.64 ± 0.4 % ID/g | Spleen [4, 8]: 0.63 ± 0.1 % ID/g | uptake in subcutaneous PC3 tumors after mife. (subcutaneous PC3 tumors; four days prior mife. 25 mg/kg): 0.18 ± 0.07 % ID/g | uptake in subcutaneous PC3 tumors (subcutaneous PC3 tumors; [9]): 0.37 ± 0.1 % ID/g | uptake in subcutaneous DU145 tumors after mife. ([5]; four days prior mife. 25 mg/kg): 0.23 ± 0.09 % ID/g | uptake in subcutaneous DU145 tumors [5, 9]: 0.45 ± 0.2 % ID/g | fold higher uptake in renal capsule tumor vs subcutaneous PC3 tumor ([6]; mouse, in vivo, sc): ~16 fold | uptake in renal capsule PC3 tumor after mife. ([6]; pretreatment with mife. 25 mg/kg, 60 minutes post injection): 2.84 ± 1.8 % ID/g | uptake in renal capsule PC3 tumor ([6]; vehicle, 60 minutes post injection): 6.24 ± 1.0 % ID/g | uptake in the brain across the treatment arms ([2]; C57BL6/J mice, intact/adx, vehicle/mife., 60 min post injection): 0.05–0.2 % ID/g | Blood [2, 10]: 2.36 ± 1.6 % ID/g | Bone [2, 10]: 1.25 ± 0.8 % ID/g | Brain [2, 10]: 0.17 ± 0.05 % ID/g | Heart [2, 10]: 2.39 ± 0.6 % ID/g | Kidney [2, 10]: 13.42 ± 3.1 % ID/g | Liver [2, 10]: 21.83 ± 3.3 % ID/g | Lung [2, 10]: 2.15 ± 1.0 % ID/g | Muscle [2, 10]: 1.15 ± 0.4 % ID/g | Spleen [2, 10]: 1.41 ± 0.6 % ID/g | Stomach [2, 10]: 5.54 ± 2.4 % ID/g | Blood [2, 8]: 0.83 ± 0.3 % ID/g | Kidney [2, 8]: 3.96 ± 1.9 % ID/g | Liver [2, 8]: 7.98 ± 1.5 % ID/g | Muscle [2, 8]: 0.36 ± 0.3 % ID/g | Stomach [2, 8]: 0.62 ± 0.1 % ID/g | time of peak accumulation in the liver post injection ([2]; one hour dynamic PET scan, intact male C57BL6/J mouse): ≤ 10 min
SMILES: CC12C=CC(=O)C=C1CCC1C2C(O)CC2(C)C1CCC2(O)C(=O)CNC(=O)c1ccc([18F])cc1 (stereo not drawn) [^18F-GR02]

SMILES: CC#C[C@]1(O)CC[C@H]2[C@@H]3CCC4=CC(=O)CCC4=C3[C@@H](c3ccc(N(C)C)cc3)C[C@@]21C [mife., mifepristone, reference compound]
effect on 18F-GR02 uptake in liver, spleen, small intestine and stomach ([4]; intact C57BL6/J mice, 25 mg/kg daily oral gavage for four days, one hour post injection): statistically significant suppression | effect on 18F-GR02 uptake in several tissues, including liver, kidney and stomach ([2]; adx C57BL6/J mice, mife. pretreatment): suppressed ^18F-GR02 uptake to a statistically significant extent
